Kd data for 10 compounds are collected here from ChEMBL document CHEMBL3991601, “The target landscape of clinical kinase drugs” (Science, 2017).

Molecules are shown by their SMILES. Active and inactive are the calls of the source. Where only a bound is given, the exact number is not on record here.

Assay [1] has as its target T1, Peroxisomal acyl-coenzyme A oxidase 1 (Homo sapiens, UniProt Q15067).
T1 sequence (Q15067 whole entry): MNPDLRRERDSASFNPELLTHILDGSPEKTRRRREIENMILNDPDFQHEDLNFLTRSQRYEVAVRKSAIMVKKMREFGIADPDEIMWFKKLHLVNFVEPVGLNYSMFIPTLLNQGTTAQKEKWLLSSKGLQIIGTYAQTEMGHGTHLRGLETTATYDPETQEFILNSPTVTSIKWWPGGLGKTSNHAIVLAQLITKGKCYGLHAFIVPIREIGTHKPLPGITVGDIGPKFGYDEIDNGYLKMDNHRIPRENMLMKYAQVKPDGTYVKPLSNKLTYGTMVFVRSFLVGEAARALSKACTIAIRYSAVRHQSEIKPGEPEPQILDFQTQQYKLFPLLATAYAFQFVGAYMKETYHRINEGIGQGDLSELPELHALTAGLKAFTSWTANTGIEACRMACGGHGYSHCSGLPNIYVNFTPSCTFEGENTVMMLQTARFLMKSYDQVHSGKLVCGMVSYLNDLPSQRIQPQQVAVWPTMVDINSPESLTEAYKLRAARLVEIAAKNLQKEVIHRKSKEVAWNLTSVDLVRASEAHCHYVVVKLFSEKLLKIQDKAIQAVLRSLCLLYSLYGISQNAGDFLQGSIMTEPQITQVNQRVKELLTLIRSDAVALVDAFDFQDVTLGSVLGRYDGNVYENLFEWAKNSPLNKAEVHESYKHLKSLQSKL

Assay [2] deals with T2, Bone morphogenetic protein receptor type-2 (Homo sapiens, UniProt Q13873).
T2 sequence (Q13873 whole entry): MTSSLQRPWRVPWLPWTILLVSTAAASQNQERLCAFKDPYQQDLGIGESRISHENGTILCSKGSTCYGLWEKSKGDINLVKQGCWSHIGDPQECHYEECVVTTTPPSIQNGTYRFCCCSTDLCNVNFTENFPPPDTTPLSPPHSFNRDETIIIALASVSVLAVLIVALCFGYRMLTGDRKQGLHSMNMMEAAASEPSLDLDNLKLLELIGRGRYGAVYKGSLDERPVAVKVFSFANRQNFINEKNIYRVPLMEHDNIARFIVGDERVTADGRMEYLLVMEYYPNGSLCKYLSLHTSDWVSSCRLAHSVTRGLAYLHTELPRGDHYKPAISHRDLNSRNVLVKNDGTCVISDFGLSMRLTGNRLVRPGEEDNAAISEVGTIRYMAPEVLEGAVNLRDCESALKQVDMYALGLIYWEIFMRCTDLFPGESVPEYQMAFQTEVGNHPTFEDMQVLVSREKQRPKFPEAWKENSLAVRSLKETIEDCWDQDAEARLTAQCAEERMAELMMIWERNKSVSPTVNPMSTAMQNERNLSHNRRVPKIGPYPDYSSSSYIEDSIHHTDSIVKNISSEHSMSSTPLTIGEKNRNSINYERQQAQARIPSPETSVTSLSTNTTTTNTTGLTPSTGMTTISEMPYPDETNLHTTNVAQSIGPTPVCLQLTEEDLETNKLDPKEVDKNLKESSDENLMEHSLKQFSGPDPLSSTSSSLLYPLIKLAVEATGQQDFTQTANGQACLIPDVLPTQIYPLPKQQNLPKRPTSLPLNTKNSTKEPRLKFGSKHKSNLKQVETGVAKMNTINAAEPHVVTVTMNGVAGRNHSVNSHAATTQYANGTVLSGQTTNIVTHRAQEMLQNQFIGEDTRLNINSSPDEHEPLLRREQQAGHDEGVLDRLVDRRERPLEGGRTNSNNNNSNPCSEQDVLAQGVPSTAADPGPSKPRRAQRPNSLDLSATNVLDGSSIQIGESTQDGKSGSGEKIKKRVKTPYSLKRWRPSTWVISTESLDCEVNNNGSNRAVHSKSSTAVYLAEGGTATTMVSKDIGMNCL

Assay [3] concerns the target Serine/threonine-protein kinase B-raf (Homo sapiens, UniProt P15056).
Another assay concerns the target T3, dCTP pyrophosphatase 1 (Homo sapiens, UniProt Q9H773).
T3 sequence (Q9H773 whole entry): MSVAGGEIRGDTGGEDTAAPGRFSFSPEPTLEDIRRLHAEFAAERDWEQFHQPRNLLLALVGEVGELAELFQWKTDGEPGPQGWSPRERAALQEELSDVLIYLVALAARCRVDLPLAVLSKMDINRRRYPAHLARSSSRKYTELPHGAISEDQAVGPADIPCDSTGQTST

The target of assay [4] is Insulin-like growth factor 1 receptor (Homo sapiens, UniProt P08069).
Chain of Insulin-like growth factor 1 receptor (P08069 31-736 limits assumed): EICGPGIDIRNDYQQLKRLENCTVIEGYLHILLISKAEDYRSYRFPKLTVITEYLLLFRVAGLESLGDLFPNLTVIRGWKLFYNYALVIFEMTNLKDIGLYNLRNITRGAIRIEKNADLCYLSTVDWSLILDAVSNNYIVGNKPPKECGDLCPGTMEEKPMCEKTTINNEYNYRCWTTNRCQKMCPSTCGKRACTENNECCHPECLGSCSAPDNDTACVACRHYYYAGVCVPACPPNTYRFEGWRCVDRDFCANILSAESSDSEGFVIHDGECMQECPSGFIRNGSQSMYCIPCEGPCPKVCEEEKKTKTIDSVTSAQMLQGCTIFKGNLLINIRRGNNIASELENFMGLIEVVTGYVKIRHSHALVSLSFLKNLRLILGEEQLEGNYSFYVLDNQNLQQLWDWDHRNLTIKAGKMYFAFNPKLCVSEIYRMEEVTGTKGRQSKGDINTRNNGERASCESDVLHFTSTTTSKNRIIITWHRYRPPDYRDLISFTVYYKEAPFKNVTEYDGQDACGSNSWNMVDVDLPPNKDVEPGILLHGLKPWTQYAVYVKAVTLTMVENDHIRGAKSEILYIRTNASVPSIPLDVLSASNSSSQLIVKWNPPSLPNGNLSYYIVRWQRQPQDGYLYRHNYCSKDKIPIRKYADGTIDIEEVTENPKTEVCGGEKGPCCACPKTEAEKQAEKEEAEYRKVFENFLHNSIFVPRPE
Chain of Insulin-like growth factor 1 receptor (P08069 741-1367 limits assumed): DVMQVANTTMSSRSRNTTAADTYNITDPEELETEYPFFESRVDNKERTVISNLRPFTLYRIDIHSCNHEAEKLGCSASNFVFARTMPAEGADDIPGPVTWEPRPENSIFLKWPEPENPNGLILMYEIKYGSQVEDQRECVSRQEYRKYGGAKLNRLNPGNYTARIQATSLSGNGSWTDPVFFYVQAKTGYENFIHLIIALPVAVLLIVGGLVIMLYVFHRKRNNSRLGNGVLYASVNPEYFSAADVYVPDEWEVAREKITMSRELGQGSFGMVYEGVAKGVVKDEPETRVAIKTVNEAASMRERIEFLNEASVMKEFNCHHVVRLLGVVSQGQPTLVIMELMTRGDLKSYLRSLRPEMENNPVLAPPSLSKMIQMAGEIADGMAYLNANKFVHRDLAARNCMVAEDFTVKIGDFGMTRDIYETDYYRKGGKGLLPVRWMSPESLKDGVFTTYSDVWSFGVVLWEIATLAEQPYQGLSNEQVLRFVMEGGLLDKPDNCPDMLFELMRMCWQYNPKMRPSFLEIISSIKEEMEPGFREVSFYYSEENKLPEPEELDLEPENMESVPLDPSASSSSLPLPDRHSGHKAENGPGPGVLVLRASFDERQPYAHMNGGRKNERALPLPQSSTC
Assay [5] has as its target Interleukin-1 receptor-associated kinase 1 (Homo sapiens, UniProt P51617).
Assay [6] deals with Tyrosine-protein kinase Lyn (Homo sapiens, UniProt P07948).
Chain of Tyrosine-protein kinase Lyn (P07948 whole entry): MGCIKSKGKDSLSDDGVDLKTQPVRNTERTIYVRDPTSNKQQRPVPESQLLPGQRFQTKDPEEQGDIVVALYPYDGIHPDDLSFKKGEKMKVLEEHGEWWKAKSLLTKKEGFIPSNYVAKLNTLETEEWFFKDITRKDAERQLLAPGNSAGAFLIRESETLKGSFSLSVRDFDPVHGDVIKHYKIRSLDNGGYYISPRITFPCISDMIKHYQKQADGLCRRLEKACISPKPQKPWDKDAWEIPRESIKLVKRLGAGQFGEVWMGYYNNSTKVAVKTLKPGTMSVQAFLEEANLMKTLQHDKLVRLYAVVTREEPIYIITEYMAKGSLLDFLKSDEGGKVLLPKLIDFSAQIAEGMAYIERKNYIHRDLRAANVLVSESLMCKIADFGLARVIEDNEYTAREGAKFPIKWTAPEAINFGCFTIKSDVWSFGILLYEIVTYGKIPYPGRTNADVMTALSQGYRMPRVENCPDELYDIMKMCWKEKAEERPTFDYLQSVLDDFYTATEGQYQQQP
The target of assay [7] is T4, Dual specificity mitogen-activated protein kinase kinase 6 (Homo sapiens, UniProt P52564).
T4 sequence (P52564 whole entry): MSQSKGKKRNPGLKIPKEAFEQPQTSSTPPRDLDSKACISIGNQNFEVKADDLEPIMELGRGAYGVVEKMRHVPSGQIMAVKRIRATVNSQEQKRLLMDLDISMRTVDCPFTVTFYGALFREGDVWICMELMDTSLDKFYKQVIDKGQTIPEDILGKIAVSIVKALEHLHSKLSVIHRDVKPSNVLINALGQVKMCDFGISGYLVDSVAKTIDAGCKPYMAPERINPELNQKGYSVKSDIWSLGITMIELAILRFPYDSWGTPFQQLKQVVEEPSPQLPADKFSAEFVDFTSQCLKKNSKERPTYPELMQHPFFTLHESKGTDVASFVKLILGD

Assay [8] deals with Mitogen-activated protein kinase 7 (Homo sapiens, UniProt Q13164).
Chain of Mitogen-activated protein kinase 7 (Q13164 whole entry): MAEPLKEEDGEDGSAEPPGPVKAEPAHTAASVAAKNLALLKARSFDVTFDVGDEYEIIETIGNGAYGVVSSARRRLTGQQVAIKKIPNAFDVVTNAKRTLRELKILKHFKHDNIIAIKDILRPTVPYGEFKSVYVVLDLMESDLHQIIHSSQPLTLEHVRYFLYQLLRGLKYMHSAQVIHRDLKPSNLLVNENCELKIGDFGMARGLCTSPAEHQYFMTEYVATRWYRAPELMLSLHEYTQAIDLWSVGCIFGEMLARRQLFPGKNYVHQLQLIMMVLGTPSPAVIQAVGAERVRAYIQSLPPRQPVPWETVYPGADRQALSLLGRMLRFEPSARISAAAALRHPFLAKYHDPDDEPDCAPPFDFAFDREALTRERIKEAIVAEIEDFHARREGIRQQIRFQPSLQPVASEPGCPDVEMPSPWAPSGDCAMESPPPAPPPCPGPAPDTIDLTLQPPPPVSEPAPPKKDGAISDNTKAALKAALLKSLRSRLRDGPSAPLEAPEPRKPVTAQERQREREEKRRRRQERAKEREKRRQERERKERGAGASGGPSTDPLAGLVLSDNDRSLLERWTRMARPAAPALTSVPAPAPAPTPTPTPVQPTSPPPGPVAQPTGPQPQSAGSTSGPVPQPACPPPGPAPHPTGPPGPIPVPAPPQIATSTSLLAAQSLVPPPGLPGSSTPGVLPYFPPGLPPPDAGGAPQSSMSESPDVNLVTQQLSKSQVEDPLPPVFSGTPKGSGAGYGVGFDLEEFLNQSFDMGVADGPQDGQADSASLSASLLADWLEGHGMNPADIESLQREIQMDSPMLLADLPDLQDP
Assay [9] concerns the target T5, Ras-related protein Rab-27A (Homo sapiens, UniProt P51159).
T5 sequence (P51159 whole entry): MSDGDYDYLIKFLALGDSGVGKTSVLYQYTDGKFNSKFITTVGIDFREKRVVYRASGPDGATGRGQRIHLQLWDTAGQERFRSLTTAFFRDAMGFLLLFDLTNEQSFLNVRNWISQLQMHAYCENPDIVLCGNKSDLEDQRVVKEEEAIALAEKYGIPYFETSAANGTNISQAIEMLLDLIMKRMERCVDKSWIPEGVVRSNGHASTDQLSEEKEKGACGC

For assay [10], the target named is Tyrosine-protein kinase SYK (Homo sapiens, UniProt P43405).
Also: in the data inactive means no Kd found up to 30 µM.

Chain of Interleukin-1 receptor-associated kinase 1 (P51617 whole entry): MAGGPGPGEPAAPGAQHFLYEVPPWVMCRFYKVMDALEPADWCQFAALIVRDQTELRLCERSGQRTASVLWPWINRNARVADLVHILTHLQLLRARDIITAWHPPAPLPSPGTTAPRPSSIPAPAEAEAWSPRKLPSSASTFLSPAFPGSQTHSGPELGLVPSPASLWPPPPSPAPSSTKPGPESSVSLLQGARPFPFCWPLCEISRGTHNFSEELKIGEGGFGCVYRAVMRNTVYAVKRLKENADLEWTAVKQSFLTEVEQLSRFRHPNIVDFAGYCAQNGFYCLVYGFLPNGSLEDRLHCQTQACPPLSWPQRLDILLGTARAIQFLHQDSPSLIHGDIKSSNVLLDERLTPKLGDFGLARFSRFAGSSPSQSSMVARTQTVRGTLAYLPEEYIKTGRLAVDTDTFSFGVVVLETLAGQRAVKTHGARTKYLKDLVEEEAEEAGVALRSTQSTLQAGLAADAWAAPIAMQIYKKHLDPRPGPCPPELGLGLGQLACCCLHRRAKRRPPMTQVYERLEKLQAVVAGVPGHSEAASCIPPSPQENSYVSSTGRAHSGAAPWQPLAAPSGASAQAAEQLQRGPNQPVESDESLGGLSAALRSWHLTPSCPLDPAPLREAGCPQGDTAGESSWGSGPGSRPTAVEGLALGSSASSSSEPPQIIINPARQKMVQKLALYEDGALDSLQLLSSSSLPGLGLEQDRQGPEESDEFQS
Chain of Serine/threonine-protein kinase B-raf (P15056 whole entry): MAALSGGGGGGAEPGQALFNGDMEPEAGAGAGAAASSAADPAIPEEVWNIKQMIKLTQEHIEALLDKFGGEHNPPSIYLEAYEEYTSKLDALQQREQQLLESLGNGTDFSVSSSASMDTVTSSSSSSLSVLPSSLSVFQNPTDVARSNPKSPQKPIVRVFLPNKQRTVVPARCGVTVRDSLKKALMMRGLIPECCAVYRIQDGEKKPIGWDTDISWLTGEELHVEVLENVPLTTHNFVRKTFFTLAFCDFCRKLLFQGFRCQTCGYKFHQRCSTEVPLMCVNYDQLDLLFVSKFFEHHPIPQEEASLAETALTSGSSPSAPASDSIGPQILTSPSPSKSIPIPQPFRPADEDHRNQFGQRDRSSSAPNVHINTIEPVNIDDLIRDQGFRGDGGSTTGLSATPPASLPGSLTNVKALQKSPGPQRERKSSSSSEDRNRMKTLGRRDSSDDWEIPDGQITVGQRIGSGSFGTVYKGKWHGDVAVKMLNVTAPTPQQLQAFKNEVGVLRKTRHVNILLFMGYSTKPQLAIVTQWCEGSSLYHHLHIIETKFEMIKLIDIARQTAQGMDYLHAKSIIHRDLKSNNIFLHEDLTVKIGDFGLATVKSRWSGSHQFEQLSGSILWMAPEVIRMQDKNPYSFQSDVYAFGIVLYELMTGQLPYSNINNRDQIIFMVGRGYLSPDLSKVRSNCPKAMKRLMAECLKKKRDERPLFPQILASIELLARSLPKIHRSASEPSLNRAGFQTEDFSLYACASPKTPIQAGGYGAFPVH

With `C[C@@H](Oc1cc(C(=O)Nc2ccc(C(=O)N3CCN(C)CC3)cc2)nnc1N)c1c(Cl)ccc(F)c1Cl`, the Kd (in assay [1]; in [2]; in assay [3]; on dCTP pyrophosphatase 1; in [4]; in assay [5]) was > 30 µM (inactive) each time. In addition, the Kd in assay [6], in assay [7], in assay [8], in [9] and in assay [10] was > 30 µM (inactive) throughout.

As for `C[C@H]1CNCCCN1S(=O)(=O)c1cccc2cncc(F)c12`, the Kd (in assay [1]; in [2]; in assay [3]; on dCTP pyrophosphatase 1; in assay [4]; in assay [5]) was > 30 µM (inactive) throughout. The Kd in [6], in assay [7], in assay [8], in [9] and in assay [10] was > 30 µM (inactive) in each case.

As to `CCNC(=O)C#Cc1ccc2c(c1)NC(=O)/C2=C(\Nc1ccc(CN(C)C)cc1)c1ccccc1`, the Kd (in assay [1]; in assay [2]; in [3]; on dCTP pyrophosphatase 1; in assay [4]; in [5]) was > 30 µM (inactive) each time. Further, the dissociation constant (Kd) was 0.097 µM (active) in assay [6]; > 30 µM (inactive) in assay [7]; > 30 µM (inactive) in [8]; > 30 µM (inactive) in assay [9]; > 30 µM (inactive) in assay [10].

For the compound `Cc1nc2cc(-c3nn(C(C)C)c4ncnc(N)c34)ccc2o1`, the Kd (in [1]; in [2]; in [3]; at dCTP pyrophosphatase 1; in assay [4]; in [5]) was > 30 µM (inactive) in each case. In addition, the Kd in assay [6], in assay [7], in assay [8], in assay [9] and in assay [10] was > 30 µM (inactive) each time.

Consider `Cc1csc(-c2nnc(Nc3ccc(Oc4ncccc4-c4ccnc(N)n4)cc3)c3ccccc23)c1` [AMG-900], for which the Kd is > 30 µM (inactive) in assay [1]; > 30 µM (inactive) in assay [2]; 2.48 µM (active) in [3]; > 30 µM (inactive) at dCTP pyrophosphatase 1; > 30 µM (inactive) in assay [4]; > 30 µM (inactive) in assay [5]. Besides, the Kd in assay [6], in assay [7], in [8], in [9] and in [10] was > 30 µM (inactive) each time.

As to `C=CC(=O)Nc1cc2c(Nc3ccc(F)c(Cl)c3)ncnc2cc1C#CC(C)(C)N1CCN(C)CC1` [AV-412 FREE BASE], the Kd (in assay [1]; in [2]; in assay [3]; at dCTP pyrophosphatase 1; in [4]; in assay [5]) was > 30 µM (inactive) throughout. The Kd in assay [6], in [7], in assay [8], in [9] and in [10] was > 30 µM (inactive) in each case.

For `COc1cc([C@@H]2c3cc4c(cc3[C@H](O)[C@H]3COC(=O)[C@@H]23)OCO4)cc(OC)c1OC` [AXL-1717], the Kd (in assay [1]; in [2]; in [3]; at dCTP pyrophosphatase 1; in [4]; in assay [5]) was > 30 µM (inactive) in each case. The Kd in [6], in assay [7], in assay [8], in assay [9] and in [10] was > 30 µM (inactive) throughout.

`NC(=O)Nc1cc(-c2cccc(F)c2)sc1C(=O)N[C@H]1CCCNC1` [AZD-7762]: the Kd (in [1]; in assay [2]; in [3]; at dCTP pyrophosphatase 1; in assay [4]; in assay [5]) was > 30 µM (inactive) in each case. The Kd in assay [6] was 0.48 µM (active); in assay [7] it was > 30 µM (inactive); in assay [8] it was > 30 µM (inactive); in assay [9], > 30 µM (inactive); in assay [10], 1.48 µM (active).

On to `Cn1cnc2c(F)c(Nc3ccc(Br)cc3F)c(C(=O)NOCCO)cc21` [BINIMETINIB], for which the Kd (in assay [1]; in [2]; in [3]; on dCTP pyrophosphatase 1; in [4]; in assay [5]) was > 30 µM (inactive) each time. Moreover, the Kd in assay [6], in [7], in assay [8], in assay [9] and in assay [10] was > 30 µM (inactive) in each case.

Turning to `CCn1c(C(=O)N(C2CC2)C2CC2)cc2c3c(ncn3C)c(Nc3cc(C)n(C)n3)nc21` [BMS-911543], the Kd (in assay [1]; in assay [2]; in [3]; at dCTP pyrophosphatase 1; in assay [4]; in [5]) was > 30 µM (inactive) throughout. Moreover, the Kd in assay [6], in assay [7], in [8], in assay [9] and in [10] was > 30 µM (inactive) in each case.

One may read the Kd as a measure of binding affinity in units of concentration.
